Experimental data reported in article PMC11329928, “Design, synthesis and structure-activity relationship (SAR) studies of an unusual class of non-cationic fatty amine-tripeptide conjugates as novel synthetic antimicrobial agents” (Frontiers in Pharmacology, 2024).
Counter-ions that a name gives are not always drawn.

What was measured:
[1] = test system: Pseudomonas aeruginosa PAO1; experiment: Resting-cell viability (CFU) with 0.5 mM EDTA; type: cell-based; design: key to CFU's decay in the presence of 0.5 mM EDTA, Pa (data in parenthesis): (+) CFU, decay ∼1 log-unit; (−) ≤ 0.3 log-units; conditions: for CFU's decay in the presence of 0.5 mM EDTA, Pa (data in parenthesis): P. aeruginosa PAO1, 100 µM compound, 3 h incubation; for Decrease in bacterial viability compared to controls in EDTA-containing buffer, P. aeruginosa: P. aeruginosa PAO1, 100 µM, 20 mM Tris-HCl pH 7.5, 3 h, 37°C
Procedure: (§1) Addition of tested compounds to the culture medium had little or no effect on bacterial growth, even at a concentration of 100 μM (Table 1). Since inactivity could arise from the inability of DICAMs to cross the outer membrane, we next tested their effect on bacterial suspensions in the absence or the presence of 0.5 mM EDTA, an outer membrane permeating agent. A decrease of approximately 90% in bacterial viability was observed after 3 h treatment with DICAM 2 and DICAM 4, compared to controls in EDTA-containing buffer (Supplementary Figure S5). No variations were found with the other compounds tested (Table 1), showing that only DICAMs containing Ala/Asn- Pro -Glu tripeptides were able to access the cell membrane and kill these pathogens when the outer membrane permeability was enhanced.
(§2) For activity assays on resting cells, bacteria grown to exponential phase (OD600 ≈ 0.3) were centrifuged and washed with 20 mM Tris-HCl (pH 7.5), adjusting the final OD600 to ≈0.6 (≈10^8 CFU/mL) with the same buffer. If required, EDTA (0.5 mM final concentration) was next added and the bacterial suspension was dispensed (225 µL per well) in 96-well plates, and then treated with 100 µM DICAM (25 µL). Samples were incubated at 37°C for 3 h and turbidity measurements were taken at selected intervals, also measuring the decay in cell viability at the end of incubation. Controls with buffer (with and without 1% DMSO), 100 µM DICAM, or 0.5 mM EDTA were run in parallel.

[2] = test system: S. aureus T; experiment: Growth inhibition and bacterial survival at 100 µM (Figure 6); type: cell-based, Staphylococcus aureus; conditions: 100 µM compound, BHI, 37°C; for S. aureus T growth, % of controls: five or more hours of incubation, increment in OD600 vs controls
Procedure: FIGURE 6 Antimicrobial effect of DICAMs active on S. aureus ^T. (A) Growth inhibition after culture challenge at 37°C with 100 μM of compound for 2, 5, and 6.5 h in BHI. Bars represent the percentage of the increment in OD600 for treated samples compared to controls and color goes from light to dark as time increases. “X” represents Ala, Asn, Glu or Orn. (B) Dependence of the kinetics of growth (OD600) (left panel) and bacterial population (right panel) on DICAM 14 dose. Bars in light and dark grey show bacterial populations of the initial inoculum and after incubation (3 and 5 h, respectively). Data shown are the average of three replicates, with error bars indicating the standard deviation of the mean.
Susceptibility to DICAMs was first tested by growth-inhibition assays at 50 and 100 μM of compound. Briefly, working solutions at 5 mM or 10 mM DICAM in pure DMSO were prepared from DICAM stocks (40 mM in pure DMSO) and diluted with fresh culture medium to 5× the desired final concentration. Aliquots (50 µL) of these solutions were added to 200 µL of bacterium cultures grown to early exponential phase (OD550/600 c. a. 0.15–0.2 in sterile 96-well plates (Cultek, Spain). Incubation continued for 10 h at 37°C and turbidity (OD550/600) values were measured every 20 min to monitor growth and lysis, using a VersaMax microplate reader (Molecular Devices; United Kingdom). Next, the activity dependence on DICAM’s dose was examined by measuring the turbidity of treated and untreated cultures as a function of time. Also, the decay of bacterial viability (CFU/mL) at selected times of treatment was assessed by colony counting on LB-agar or TSA plates after overnight incubation at 37°C. By default, 10 μL of 10-fold serially diluted samples were plated, which set the lower detection limit at 10^2 CFU/mL (10^1 CFU/mL when 100 μL of the undiluted sample was seeded).

[3] = test system: Escherichia coli DH10B; experiment: Resting-cell viability (CFU) with 0.5 mM EDTA; type: cell-based; design: key to CFU's decay in the presence of 0.5 mM EDTA, Ec (data in parenthesis): (+) CFU, decay ∼1 log-unit; (−) ≤ 0.3 log-units; conditions: for Decrease in bacterial viability compared to controls in EDTA-containing buffer, E. coli: 100 µM, 20 mM Tris-HCl pH 7.5, 3 h, 37°C; for CFU's decay in the presence of 0.5 mM EDTA, Ec (data in parenthesis): E. coli DH10B, 100 µM compound, 3 h incubation
Procedure: as §1, §2

[4] = test system: A549, IMR-90 and HeLa cells; conditions: 48 h
Procedure: DICAM’s cytotoxicity was determined employing a modified MTT assay as described elsewhere ([Antúnez-Mojica et al., 2016]) using human lung carcinoma epithelial cells A549, human fetal lung fibroblasts IMR-90, and human HeLa cervix carcinoma cells treated with increasing concentrations of DICAMs (0.8–200 µM range). A549 cells were grown in RPMI 1640 (Gibco; Fisher Scientific, Spain) supplemented with 10% FCS, 2 mM glutamine, 100 IU/mL penicillin and 100 μg/mL streptomycin. IMR-90 and HeLa cells were cultured in DMEM (Gibco; Fisher Scientific, Spain) supplemented with 10% FCS, 2 mM L-glutamine, 1 mM pyruvate, 100 IU/L penicillin, 100 μg/mL streptomycin and 40 μg/mL gentamycin. Cell viability was assessed after 48 h exposure to DICAMs. Vinblastine was used as a positive control. IC50 value is the concentration that gives 50% inhibition of cell growth and was determined using SigmaPlot (Systat) fitting to a Four Parameter Logistic curve.

[5] = test system: S. pyogenes T membrane; experiment: Membrane depolarization, DiSC3(5); type: cell-based, Streptococcus pyogenes; conditions: S. pyogenes T in BHI, OD550 ≈ 0.2, DiSC3(5) 1 µM, 37°C
Procedure: (§3) Permeation and depolarization of S. pyogenes ^T membrane by DICAMs were assayed with the fluorescent probes SYTOX Green and DiSC3(5), respectively, in a Varioskan Flash microplate reader (Thermo Scientific; Spain) using FluoroNunc 96-well plates (Thermo Scientific; Spain). For permeation assays, cells were grown to an OD550 ≈ 0.3, washed once with PBS pH 7.2 (3,800 × g, 7 min, room temperature), and adjusted to a final OD550 ≈ 0.4 (∼10^8 CFU/mL) with the same buffer before mixing in the dark with SYTOX Green (5 µM final concentration). One hundred µL of this suspension was dispensed per plate well and the signal stabilization was monitored for 15 min (λex = 485 nm; λem = 520 nm). Then, 100 µL of two-fold serially diluted lipopeptide samples was added and changes in fluorescence intensity were registered for 60 min at 37°C. SYTOX Green (900 Da) binds to intracellular DNA when the cell membrane is damaged, thereby increasing fluorescence intensity ([Roth et al., 1997]). Positive controls (100% membrane permeabilization) were carried out by adding Titron X-100 (0.01% final concentration) to untreated bacterial samples ([Rathinakumar et al., 2009]). For membrane depolarization assays, 180 µL of an OD550 ≈ 0.2 culture (BHI; ≈ 10^7 CFU/mL) supplemented with DiSC3(5) (1 µM final concentration) was distributed per well, and signal stabilization was registered for 30 min (λex = 622 nm; λem = 670 nm) ([Te Winkel et al., 2016]). Subsequently, 20 µL of a two-fold serial dilution of lipopeptide in culture medium was added, and fluorescence intensity was recorded for 60 min at 37°C. Partition of DiSC3(5) to the surface of polarized cells decreases the probe fluorescence, and its release, caused by membrane depolarization, results in an increase in fluorescence. […] The background signal of controls with bacterial cells without the fluorescent probe, as well as the dye fluorescence in the presence of the tested compounds without bacteria, were also registered. No change in the fluorescence intensity of the probes occurred upon DICAM addition in the absence of bacterial cells.

[6] = test system: S. pyogenes T membrane; experiment: Membrane permeation, SYTOX Green; type: cell-based, Streptococcus pyogenes
Procedure: as §3

`CCCCCCCCCCCCCCCCCCNC(=O)[C@H](CCC(=O)O)NC(=O)[C@H]1CCCN1C(=O)[C@H](C)N` [DICAM 4, Ala- Pro -Glu-NH-C18H37 ·HCl] was tested, and the “CFU's decay in the presence of 0.5 mM EDTA, Pa (data in parenthesis)” value (shortened to “CFU's decay … Pa (data in parenthesis)”) [1] was “(+)”, the “Decrease in bacterial viability compared to controls in EDTA-containing buffer, P. aeruginosa” value [1] was “approximately 90%” and the “S. aureus T growth, % of controls” value [2] was “≈ 25 % of controls”. For the same molecule, the “Decrease in bacterial viability compared to controls in EDTA-containing buffer, E. coli” value [3] was “approximately 90%” and the “CFU's decay in the presence of 0.5 mM EDTA, Ec (data in parenthesis)” value (“CFU's decay … Ec (data in parenthesis)” for short) [3] was “(+)”.
`CCCCCCCCCCCCCCCCCCNC(=O)[C@H](CCC(=O)O)NC(=O)[C@H]1CCCN1C(=O)[C@@H](N)CC(N)=O` [DICAM 2, Asn- Pro -Glu-NH-C18H37 ·HCl] was tested, and the “CFU's decay … Pa (data in parenthesis)” value [1] was “(+)”, the “Decrease in bacterial viability compared to controls in EDTA-containing buffer, P. aeruginosa” value [1] was “approximately 90%” and the “Decrease in bacterial viability compared to controls in EDTA-containing buffer, E. coli” value [3] was “approximately 90%”. The “CFU's decay … Ec (data in parenthesis)” value [3] was “(+)”.
For “Ala - Pro -Glu-NH-C18H37 · HCl [DICAM 23]”, the “S. aureus T growth, % of controls” value [2] was “≈ 25 % of controls”.
For `CCCCCCCCCCCCCCCCCCNC(=O)[C@H](C)NC(=O)[C@H]1CCCN1C(=O)[C@H](C)N` [DICAM 14, Ala- Pro -Ala-NH-C18H37 · HCl], the “CFU's decay … Pa (data in parenthesis)” value [1] was “(−) ((−) ≤ 0.3 log-units)”, the IC50 [4] was 7.3 µM and the “Permanent fall in bacterial survival” value ([2]; S. aureus T, 5 h incubation) was “≈ 85%”. For the same molecule, the “CFU's decay … Ec (data in parenthesis)” value [3] was “(−) ((−) ≤ 0.3 log-units)”.
For `CCCCCCCCCCCCCCCCCCNC(=O)[C@H](CCC(=O)O)NC(=O)[C@H]1CCCN1C(=O)[C@H](CCC(=O)O)NC(=O)OCc1ccccc1` [DICAM 19, Cbz-Glu- Pro -Glu-NH-C18H37], the “Time for dissipation of the transmembrane potential” value [5] was 5 to 10 min.
`CCCCCCCCCCCCCCCCCCNC(=O)[C@H](CCC(=O)O)NC(=O)[C@H]1CCCN1C(=O)[C@H](C)NC(C)=O` [DICAM 24, Ac-Ala- Pro -Glu-NH-C18H37] was tested, and the “CFU's decay … Ec (data in parenthesis)” value [3] was “(−) ((−) ≤ 0.3 log-units)”.
`CCCCCCCCCCCCCCCCCCNC(=O)[C@H](CCC(=O)O)NC(=O)[C@H]1CCCN1C(=O)[C@H](C)NC(=O)OCc1ccccc1` [DICAM 3, Cbz-Ala- Pro -Glu-NH-C18H37] was tested, and the “CFU's decay … Pa (data in parenthesis)” value [1] was “(−) ((−) ≤ 0.3 log-units)”, the “Time for dissipation of the transmembrane potential” value [5] was 5 to 10 min and the “Lag before steady increase in SYTOX Green fluorescence” value ([6]; S. pyogenes T in PBS pH 7.2, SYTOX Green 5 µM, 37°C, dose-dependent lag) was “more than 7 min”. The “Time to plateau of SYTOX green influx (incomplete influx)” value ([6]; S. pyogenes T, below 12.5 µM compound) was “around 40 min” and the “CFU's decay … Ec (data in parenthesis)” value [3] was “(−) ((−) ≤ 0.3 log-units)”.
